Where two headings read alike, the source gives them in different places.
Experiments:
[1] = biological target: FAK recombinant protein (Homo sapiens, UniProt Q05397); experiment: Inhibitory activity against FAK enzyme; type: biochemical; conditions: TK substrate, ATP
Protocol: The compound serially diluted with DMSO and a FAK recombinant protein were mixed, and the mixture was left to stand at room temperature for 10 min. A biotin-labeled TK substrate (TK) and ATP were then added. […] After the mixture was incubated at room temperature for 1 h, the fluorescence intensity at 615 nm and 665 nm was measured. The ratio of the fluorescence intensity at 665 nm and 615 nm was calculated. The inhibition percentages and IC50 of the compounds were calculated compared to the DMSO control group.

[2] = test system: PC3 cells; experiment: PC3 cell proliferation, 2D activity detection; type: cell-based, human; conditions: Homo sapiens, PC-3, PC3, 2D, 72 h, read-out: 2D IC50 against PC3 cells
Protocol: 2D activity detection: 1200 PC3 cells were seeded in a 96-well plate. After overnight adherence culture, the compound serially diluted was added. 72 h after addition, Cell Titer-Lumi (Beyotime C0068XL) was added to measure the ATP content in the cells. The growth of the cells was evaluated, and IC50 of the compounds against cell growth was calculated.

[3] = test system: PC3 cells; experiment: PC3 cell proliferation, 3D activity detection; type: cell-based, human; conditions: Homo sapiens, PC-3, 336 h, PC3, 3D culture, 14 days, read-out: 3D IC50 against PC3 cells
Protocol: 3D activity detection: PC3 cells were seeded in a 96-well plate at 1200 cells/well, and 3D culture was performed. 14 days after the compound serially diluted was added, the growth of the cells was determined. The inhibition percentage and IC50 of the compound were calculated compared to the DMSO control group.

[4] = In vivo pharmacokinetic experiment in mice; parameters: species or system CD-1 female mice; conditions: CD-1 mice; for AUC(0-t) / clearance / half-life / Vd / Cmax / Tmax / bioavailability: female, mouse, plasma; for Vd: read-out: Vdss; for bioavailability: oral administration 10 mg/kg vs injection
Protocol: On the day of the experiment, animals in the intravenous group were administered the corresponding compound by single injection via the tail vein at an administration volume of 10 mL/kg, and animals in the oral group were administered the corresponding compound by single intragastric injection at an administration volume of 10 mL/kg. The animals were weighed before administration, and the administration volume was calculated according to the body weight. […] About 200 μL of whole blood was collected through the orbital venous plexus at each time point and used to prepare plasma for concentration determination by high-performance liquid chromatography-tandem mass spectrometry (LC-MS/MS). The plasma concentrations were processed using a non-compartmental model of Winnolin pharmacokinetic software, and the pharmacokinetic parameters were calculated using a linear-log trapezoidal method.

[5] = test system: PC3 cells; experiment: Inhibition of PC3 cell adherence; type: cell-based; conditions: Homo sapiens, PC-3; PC3, 4 h treatment; read-out: Inhibitory activity against PC-3 cell adherence IC50
Protocol: PC3 cells were added at 8000 cells/well. 4 h after the cells were treated with the compound, the number of adherent cells was counted. The inhibition percentages and IC50 of the compounds were calculated compared to the DMSO group.

[6] = test system: Human prostatic cancer PC3 cells; experiment: In vivo efficacy test in PC-3 model; parameters: species or system BALB/c nude mice; conditions: 25 mg/kg, PO, QD (21 days)
Protocol: Female BALB/c nude mice (aged 6 weeks, 18-22 g) were provided by Vital River Laboratory Animal Technology Co., Ltd. (China) and used one week after quarantine and acclimation. All animals were kept in a room at 23±2° C. with a relative humidity of 50±5%, artificial lighting was provided from 08:00 to 20:00 every day, and the air was exchanged 13-18 times per hour.
After being subcultured, the cells were collected when they reached the desired amount. 1×10^7 PC3 cells were injected into the left dorsal side of each nude mouse, and the animals were randomly grouped for administration after tumors grew to 100-200 mm^3. The mice in the solvent control group were intragastrically administered 0.5% MC-Tween-80 twice a day; the mice in the compound groups were intragastrically administered 0.5% MC-Tween-80 suspension once a day. On Tuesday and Thursday each week, tumor volumes and body weight of the mice were measured, and the nude mice were sacrificed on day 21 after the administration.
(§1) The toxicity of the compounds was evaluated according to the body weight of the mice.

[7] = test system: Mouse colon cancer MC38 cells; experiment: In vivo efficacy experiment in MC38 model; parameters: species or system BALB/c mice; conditions: single drug 50 mg/kg, PO, QD (21 days)
Protocol: The BALB/c mice were subcutaneously injected with 1×10^6 MC38 cells on the right side to form tumors. […] The administration was then started. Tumor volumes were measured with a caliper on day 3, day 7, day 10, day 14, day 17 and day 21 after the administration.

[8] = test system: Human pancreatic cancer Mia PaCa-2 cells; experiment: In vivo efficacy test in MiaPaCa-2 model; conditions: 25 mg/kg, PO, QD (21 days)
Protocol: After being subcultured, the cells were collected when they reached the desired amount. 1×10^7 Mia PaCa-2 cells were injected into the left dorsal side of each nude mouse, and the animals were randomly grouped for administration after tumors grew to 100-200 mm^3. The mice in the solvent control group were intragastrically administered 0.5% MC-Tween-80 twice a day; the mice in the compound groups were intragastrically administered 0.5% MC-Tween-80 suspension once a day. On Tuesday and Thursday each week, tumor volumes and body weight of the mice were measured, and the nude mice were sacrificed on day 21 after the administration.
as §1

[9] = injection (IV) 1 mg/kg (footnote)

FAK recombinant protein, sequence (Q05397 whole entry, species assumed): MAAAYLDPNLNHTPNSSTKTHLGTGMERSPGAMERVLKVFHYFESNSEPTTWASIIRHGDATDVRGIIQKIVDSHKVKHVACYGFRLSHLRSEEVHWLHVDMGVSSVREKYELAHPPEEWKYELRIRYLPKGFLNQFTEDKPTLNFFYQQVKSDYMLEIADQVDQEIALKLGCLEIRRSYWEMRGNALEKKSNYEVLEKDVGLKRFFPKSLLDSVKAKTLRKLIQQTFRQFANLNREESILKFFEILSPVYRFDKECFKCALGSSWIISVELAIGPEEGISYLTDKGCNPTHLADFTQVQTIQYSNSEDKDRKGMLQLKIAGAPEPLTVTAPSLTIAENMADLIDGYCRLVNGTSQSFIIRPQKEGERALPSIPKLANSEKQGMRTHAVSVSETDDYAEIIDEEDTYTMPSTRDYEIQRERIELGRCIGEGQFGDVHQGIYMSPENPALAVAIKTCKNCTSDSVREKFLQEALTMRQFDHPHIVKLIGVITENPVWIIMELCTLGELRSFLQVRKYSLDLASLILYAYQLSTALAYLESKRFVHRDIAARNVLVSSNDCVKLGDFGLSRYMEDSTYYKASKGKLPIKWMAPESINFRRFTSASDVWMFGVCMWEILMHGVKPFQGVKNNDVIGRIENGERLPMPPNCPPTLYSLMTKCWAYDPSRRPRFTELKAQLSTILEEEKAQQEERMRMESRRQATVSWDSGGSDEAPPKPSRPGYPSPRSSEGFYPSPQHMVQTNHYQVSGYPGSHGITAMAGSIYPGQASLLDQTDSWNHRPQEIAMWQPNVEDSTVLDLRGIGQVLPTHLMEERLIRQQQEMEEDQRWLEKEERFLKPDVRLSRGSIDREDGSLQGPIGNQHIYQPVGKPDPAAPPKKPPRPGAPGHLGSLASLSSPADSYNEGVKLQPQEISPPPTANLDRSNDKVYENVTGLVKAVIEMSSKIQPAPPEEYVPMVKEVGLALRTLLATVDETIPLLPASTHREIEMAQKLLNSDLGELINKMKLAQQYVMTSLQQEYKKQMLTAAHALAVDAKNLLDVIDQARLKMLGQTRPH

Row | Structure (SMILES) | IC50 [1] [nM] | IC50 ([3]; numeric (mean where marked *)) [nM] | IC50 [5] [nM] | IC50 ([2]; class symbol) [nM] | IC50 ([3]; class symbol) [nM] | other results
1 | COc1cc(C(=O)NC2CCC3(CC2)CN(C)C3)c(F)cc1Nc1ncc(C(F)(F)F)c(Oc2cccc3c2C(=O)N(C)C3)n1 [Compound 20] | < 10 | 4.23 |  |  |  | IC50 ([2]; numeric): > 10000 nM; AUC(0-t) ([4]; injection (IV) 2 mg/kg): 622 ng·h/mL; clearance ([4]; injection (IV) 2 mg/kg): 26.8 mL/min/kg; half-life ([4]; injection (IV) 2 mg/kg): 3.46 h; Vd ([4]; injection (IV) 2 mg/kg): 4.99 L/kg; AUC(0-t) ([4]; oral administration 10 mg/kg): 934 ng·h/mL; Cmax ([4]; oral administration 10 mg/kg): 190 ng/mL; Tmax ([4]; oral administration 10 mg/kg): 2 h; half-life ([4]; oral administration 10 mg/kg): 1.97 h; bioavailability [4]: 30%
2 | COc1cc(C(=O)NC2CCC23CCN(C)CC3)c(F)cc1Nc1ncc(C(F)(F)F)c(Oc2cccc3c2C(=O)N(C)C3)n1 (stereo not shown) [Compound 21] | 10 to 50 | 1.32 | 8.5 |  |  | IC50 ([2]; numeric): > 10000 nM
3 | COc1cc(C(=O)N2CC3(CCN(C)CC3)C2)c(F)cc1Nc1ncc(C(F)(F)F)c(Oc2cccc3c2C(=O)N(C)C3)n1 [Compound 34] | < 10 | 41.3 | 86 | > 2000 |  | 
4 | COc1cc(N2CC3(CCN(C)CC3)CC2=O)c(F)cc1Nc1ncc(C(F)(F)F)c(Oc2cccc3c2C(=O)N(C)C3)n1 [Compound 62] | < 10 |  | 2.88 | > 2000 | < 5 | 
5 | COc1cc(N2CC3(CCN(C)C3)OC2=O)c(F)cc1Nc1ncc(C(F)(F)F)c(Oc2cccc3c2C(=O)N(C)C3)n1 (stereo not shown) [Compound 64] | < 10 |  | 3.33 | > 2000 | 5 to 50 | 
6 | COc1cc(N2CC3(CCN(C)C3)OCC2=O)c(F)cc1Nc1ncc(C(F)(F)F)c(Oc2cccc3c2C(=O)N(C)C3)n1 (stereo not shown) [Compound 66] | < 10 |  | 7.01 | > 2000 | > 50 | 
7 | COc1cc(N2CC3(CCN(C)CC3)C2)ccc1Nc1ncc(C(F)(F)F)c(Oc2cccc3c2C(=O)N(C)C3)n1 [Compound 90, 7-((2-((2-methoxy-4-(7-methyl-2,7-diazaspiro[3.5]non-2-yl)phenyl)amino)-5-(trifluoromethyl)pyrimidin-4-yl)oxy)-2-methylisoindolin-1-one] | < 10 | 0.8 | 1.86 |  |  | IC50 ([2]; numeric): > 10000 nM; oral bioavailability and oral absorption properties (in words) ([4]; oral 10 mg/kg): good oral bioavailability and good oral absorption properties; AUC(0-t) [4, 9]: 812 ng·h/mL; clearance [4, 9]: 20.5 mL/min/kg; half-life [4, 9]: 3.08 h; Vd [4, 9]: 5.34 L/kg; AUC(0-t) ([4]; oral administration 10 mg/kg): 7460 ng·h/mL; Cmax ([4]; oral administration 10 mg/kg): 635 ng/mL; Tmax ([4]; oral administration 10 mg/kg): 4 h; half-life ([4]; oral administration 10 mg/kg): 2.82 h; bioavailability [4]: 92%; Change in body weight [6]: −0.5%; TGI (%) [6]: 81.65%; Change in body weight [7]: +13.54%; TGI (%) [7]: 59.02%; Change in body weight [8]: +3.67%; TGI (%) [8]: 83.72%
8 | COc1cc(N2CCC3(CC2)CN(C)C3)ccc1Nc1ncc(C(F)(F)F)c(Oc2cccc3c2C(=O)N(C)C3)n1 [Compound 92] | < 10 | 0.83 | 3.05 |  |  | IC50 ([2]; numeric): > 10000 nM
9 | COc1cc(N2CCC3(CCN(C)CC3)CC2)ccc1Nc1ncc(C(F)(F)F)c(Oc2cccc3c2C(=O)N(C)C3)n1 [Compound 94] | < 10 |  | 2.58 | > 2000 | < 5 | 
10 | COc1cc(N2CC3(CCN(C)CC3)C2)ccc1Nc1ncc(C(F)(F)F)c(Oc2cccc3c2C(=O)N(C)C3C)n1 (stereo not shown) [Compound 100] | < 10 | 2.22 | 1.33 | > 2000 |  | 
11 | COc1cc(N2CC3(CCN(C)CC3)C2)ccc1Nc1ncc(C(F)(F)F)c(Oc2cccc3c2C(=O)N(C)C3(C)C)n1 [Compound 101] | < 10 | 4.86 | 2.26 | > 2000 |  | 
12 | COc1cc(N2CC3(CCNCC3)C2)ccc1Nc1ncc(C(F)(F)F)c(Oc2cccc3c2C(=O)N(C)C3)n1 [Compound 102] | < 10 |  | 3.01 | > 2000 | < 5 | 
13 | [2H]C([2H])([2H])N1CCC2(CC1)CN(c1ccc(Nc3ncc(C(F)(F)F)c(Oc4cccc5c4C(=O)N(C)C5)n3)c(OC)c1)C2 [Compound 109, 7-((2-((2-methoxy-4-(7-(methyl-d3)-2,7-diazaspiro[3.5]non-2-yl)phenyl)amino)-5-(trifluoromethyl)pyrimidin-4-yl)oxy)-2-methylisoindolin-1-one] | < 10 |  |  | > 2000 | < 5 | 
14 | COc1cc(N2CC3(CCN(C)CC3)C2)c(F)cc1Nc1ncc(Cl)c(Oc2cccc3c2C(=O)N(C)C3)n1 [Compound 110, 7-((5-chloro-2-((5-fluoro-2-methoxy-4-(7-methyl-2,7-diazaspiro[3.5]non-2-yl)phenyl)amino)pyrimidin-4-yl)oxy)-2-methylisoindolin-1-one] | < 10 |  |  | > 2000 | < 5 | 
15 | COc1cc(N2CC3(CCN(C)CC3)C2)ccc1Nc1ncc(Cl)c(Oc2cccc3c2C(=O)N(C)C3)n1 [Compound 111] | < 10 | 1.78 | 1.62 | > 2000 |  | Change in body weight [6]: −1.4%; TGI (%) [6]: 87.4%; Change in body weight [7]: +21.07%; TGI (%) [7]: 47.67%; Change in body weight [8]: +6.08%; TGI (%) [8]: 82.32%
16 | COc1cc(N2CC3(CCN(C)CC3)C2)ccc1Nc1ncc(Br)c(Oc2cccc3c2C(=O)N(C)C3)n1 [Compound 112] | < 10 | 0.66 | 0.93 | > 2000 |  | 
17 | COc1cc(N2CC3(CCN(C)CC3)C2)ccc1Nc1ncc(C#N)c(Oc2cccc3c2C(=O)N(C)C3)n1 [Compound 113] | < 10 | 1.58 | 3.56 | > 2000 |  | 
18 | COc1cc(N2CC3(CCN(C)CC3)C2)ccc1Nc1ncc([N+](=O)[O-])c(Oc2cccc3c2C(=O)N(C)C3)n1 [Compound 114] | < 10 |  | 2.63 | > 2000 | < 5 | 
19 | COc1cc(N2CC3(CCN(C)CC3)C2)ccc1Nc1ncc(F)c(Oc2cccc3c2C(=O)N(C)C3)n1 [Compound 115] | < 10 | 67 |  | > 2000 |  | 
20 | COc1cc(N2CCC3(CC2)CN(C)C3)ccc1Nc1ncc(Cl)c(Oc2cccc3c2C(=O)N(C)C3)n1 [Compound 116] | < 10 |  |  | > 2000 | < 5 | 
21 | COc1cc(N2CCC3(CC2)CN(C)C3)ccc1Nc1ncc(Br)c(Oc2cccc3c2C(=O)N(C)C3)n1 [Compound 117] | < 10 |  |  | > 2000 | < 5 | 
